The text below walks through data of ChEMBL document CHEMBL1156814, “Highly suppressing wild-type HIV-1 and Y181C mutant HIV-1 strains by 10-chloromethyl-11-demethyl-12-oxo-calanolide A with druggable profile” (J Med Chem, 2010).

Data set [1] relates to Human immunodeficiency virus 1. Briefly: Antiviral activity against 100 TCID50 HIV1 infected in human TZM-b1 cells assessed as inhibition of viral replication by pseudovirus based assay. The data set is classed as functional, organism-based. The settings on record: for pEC50: Human immunodeficiency virus 1, TZM-b1, read-out: EC50; for EC50: tzm-b1.
The nature of data set [2]: Toxicity in African green monkey Vero cells. Type of data set: cell-based. The following applies: chlorocebus sabaeus.
Data set [3] is described as follows: Selectivity index, ratio of IC50 for African green monkey Vero cells to EC50 for HIV1. The following applies: read-out: Selectivity Index. The data set is classed as toxicity, cell-based.

SMILES strings stand for the structures. pEC50: −log10 of the molar value.

In general, pEC50 refers to the EC50 on a negative log10 scale, so that one unit is a factor of ten. With `CCCc1cc(=O)oc2c3c(c4c(c12)OC(C)(C)C=C4)OC(CBr)CC3=O` (configuration not stated), in data set [1], the pEC50 was 6.74. As to `CCCc1cc(=O)oc2c3c(c4c(c12)OC(C)(C)C=C4)OC(CNC(=O)Nc1ccc(F)cc1)CC3=O` (configuration not stated), the EC50 entry in data set [1] is recorded as “Not Active”.

For the compound `CCCc1cc(=O)oc2c3c(c4c(c12)OC(C)(C)C=C4)OC(CNC(=O)Nc1ccccc1OC)CC3=O` (configuration not stated), the EC50 entry in data set [1] is given as “Not Active”. For `CCCc1cc(=O)oc2c3c(c4c(c12)OC(C)(C)C=C4)OC(CSC)CC3=O` (configuration not stated), the pEC50 in data set [1] is 6.34. As to `CCCc1cc(=O)oc2c3c(c4c(c12)OC(C)(C)C=C4)OC(CN1CCCC1)CC3=O` (configuration not stated), the EC50 result in data set [1] was “Not Active”. The term CC50 denotes the concentration giving 50% cytotoxicity. In the case of `CCCc1cc(=O)oc2c3c(c4c(c12)OC(C)(C)C=C4)OC(COC)CC3=O` (configuration not stated), in data set [1], the pEC50 was 6.74. In data set [2], this compound yielded a CC50 of 9.89 µM. Further, the selectivity ratio in data set [3] came out at 39.7. For `CCCc1cc(=O)oc2c3c(c4c(c12)OC(C)(C)C=C4)OC(C[S+](C)[O-])CC3=O` (configuration not stated), the pEC50 in data set [1] is 4.84.

In the case of `CCCc1cc(=O)oc2c3c(c4c(c12)OC(C)(C)C=C4)OC(CS(C)(=O)=O)CC3=O` (configuration not stated), the pEC50 in data set [1] is 4.47. As for `CCCc1cc(=O)oc2c3c(c4c(c12)OC(C)(C)C=C4)OC(CNS(=O)(=O)c1ccc(NC(C)=O)cc1)CC3=O` (configuration not stated), the EC50 entry in data set [1] is “Not Active”. The same measure, in the same setting: the entry for `CCCc1cc(=O)oc2c3c(c4c(c12)OC(C)(C)C=C4)OC(CNS(=O)(=O)c1ccc(F)cc1)CC3=O` (configuration not stated) is “Not Active”.
